Values joined by “and” are separate entries in the source; they are usually repeats but may differ in a detail not shown here. Equal values may be shown once. Inconclusive results and toxic doses are left out. Square brackets hold non-standard residues; d marks the D form. Peptide text beside a SMILES is read from it. * marks the point of attachment. ξ: configuration not given here. Cbz = O=C(OCc1ccccc1)*; ξA = CC(N)C(=O)O
Tested on: L1210 leukemia ip in BDF1 mice, survival T/C
Test: NCI In Vivo Anticancer Drug Screen. Data for tumor model L1210 Leukemia (intraperitoneal) in B6D2F1 (BDF1) mice
Details: endpoint: mean survival time, higher = longer survival
How it was run: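 Antitumor effect is assessed in tumor-bearing animals. Survival in the compound arm is compared with a vehicle-dosed control arm and expressed as their quotient.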

[1] = dose: 100.0 mg/kg/injection, schedule: Q01DX009 (ip), vehicle: Klucel (hydroxypropylcellulose) (HPC)
[2] = dose: 100.0 mg/kg/injection, schedule: Q04DX003 (ip), vehicle: Klucel (hydroxypropylcellulose) (HPC)
[3] = dose: 200.0 mg/kg/injection, schedule: Q01DX009 (ip), vehicle: Klucel (hydroxypropylcellulose) (HPC)
[4] = dose: 200.0 mg/kg/injection, schedule: Q04DX003 (ip), vehicle: Klucel (hydroxypropylcellulose) (HPC)
[5] = dose: 400.0 mg/kg/injection, schedule: Q01DX009 (ip), vehicle: Klucel (hydroxypropylcellulose) (HPC)
[6] = dose: 400.0 mg/kg/injection, schedule: Q04DX003 (ip), vehicle: Klucel (hydroxypropylcellulose) (HPC)
[7] = dose: 100.0 mg/kg/injection, schedule: Q01DX001 (ip), vehicle: carboxymethylcellulose (CMC)
[8] = dose: 100.0 mg/kg/injection, schedule: Q04DX002 (ip), vehicle: saline
[9] = dose: 200.0 mg/kg/injection, schedule: Q04DX002 (ip), vehicle: saline
[10] = dose: 200.0 mg/kg/injection, schedule: Q01DX001 (ip), vehicle: carboxymethylcellulose (CMC)

COc1cc(C(=O)NCC2(C)OC3(OC(=O)C2O)C(=O)N/C(=C(\C=O)C(C)=O)OC3C(O)C2CN2C(C)=O)c2cccc(C)c2c1 (configuration not stated)
T/C (dose: 0.05 mg/kg/injection, schedule: Q01DX015 (oral), vehicle: clinical formulation): 107 % of control
T/C (dose: 0.1 mg/kg/injection, schedule: Q01DX001 (ip), vehicle: clinical formulation): 104 % of control and 120 % of control
T/C (dose: 0.1 mg/kg/injection, schedule: Q01DX015 (oral), vehicle: clinical formulation): 113 % of control
T/C (dose: 0.15 mg/kg/injection, schedule: Q03DX005 (ip), vehicle: clinical formulation): 111 % of control
T/C (dose: 0.2 mg/kg/injection, schedule: Q01DX001 (ip), vehicle: clinical formulation): 103 % of control
T/C (dose: 0.2 mg/kg/injection, schedule: Q07DX003 (ip), vehicle: clinical formulation): 105 % of control
T/C (dose: 0.4 mg/kg/injection, schedule: Q01DX001 (ip), vehicle: clinical formulation): 95 % of control and 115 % of control
T/C (dose: 0.8 mg/kg/injection, schedule: Q01DX001 (ip), vehicle: clinical formulation): 107 % of control
T/C (dose: 3.5 micrograms/kg/injection, schedule: Q03DX005 (ip), vehicle: clinical formulation): 114 % of control
T/C (dose: 6.0 micrograms/kg/injection, schedule: Q01DX015 (ip), vehicle: clinical formulation): 112 % of control
T/C (dose: 6.0 micrograms/kg/injection, schedule: Q01DX045 (ip), vehicle: clinical formulation): 124 % of control
T/C (dose: 7.0 micrograms/kg/injection, schedule: Q03DX005 (ip), vehicle: clinical formulation): 122 % of control
T/C (dose: 12.5 micrograms/kg/injection, schedule: Q01DX006 (iv), vehicle: clinical formulation): 109 % of control
T/C (dose: 12.5 micrograms/kg/injection, schedule: Q01DX015 (im), vehicle: clinical formulation): 103 % of control
T/C (dose: 12.5 micrograms/kg/injection, schedule: Q01DX045 (ip), vehicle: clinical formulation): 118 % of control
T/C (dose: 13.0 micrograms/kg/injection, schedule: Q01DX Z (ip), vehicle: saline): 113 % of control
T/C (dose: 13.0 micrograms/kg/injection, schedule: Q07DX003 (ip), vehicle: clinical formulation): 118 % of control
T/C (dose: 25.0 micrograms/kg/injection, schedule: Q01DX006 (iv), vehicle: clinical formulation): 101 % of control
T/C (dose: 25.0 micrograms/kg/injection, schedule: Q01DX015 (im), vehicle: clinical formulation): 109 % of control
T/C (dose: 25.0 micrograms/kg/injection, schedule: Q01DX Z (ip), vehicle: saline): 113 % of control
T/C (dose: 25.0 micrograms/kg/injection, schedule: Q07DX003 (ip), vehicle: clinical formulation): 124 % of control
T/C (dose: 50.0 micrograms/kg/injection, schedule: Q01DX006 (iv), vehicle: clinical formulation): 115 % of control
T/C (dose: 50.0 micrograms/kg/injection, schedule: Q01DX015 (im), vehicle: clinical formulation): 115 % of control
T/C (dose: 50.0 micrograms/kg/injection, schedule: Q01DX Z (ip), vehicle: saline): 98 % of control and 107 % of control
T/C (dose: 100.0 micrograms/kg/injection, schedule: Q01DX006 (iv), vehicle: clinical formulation): 123 % of control
T/C (dose: 100.0 micrograms/kg/injection, schedule: Q01DX015 (im), vehicle: clinical formulation): 110 % of control
T/C (dose: 100.0 micrograms/kg/injection, schedule: Q01DX015 (ip), vehicle: clinical formulation): 95 % of control
T/C (dose: 100.0 micrograms/kg/injection, schedule: Q01DX Z (ip), vehicle: saline): 89 % of control

Cc1cccc(N2CCC3(CC2)C(=O)NC(=S)NC3=O)c1
T/C (dose: 100.0 mg/kg/injection, schedule: Q01DX001 (ip), vehicle: saline): 104 % of control
T/C (dose: 200.0 mg/kg/injection, schedule: Q01DX001 (ip), vehicle: saline): 94 % of control
T/C (dose: 400.0 mg/kg/injection, schedule: Q01DX001 (ip), vehicle: saline): 98 % of control

C=COCCOC
T/C (dose: 100.0 mg/kg/injection, schedule: Q01DX009 (ip), vehicle: saline with Tween-80): 104 % of control
T/C (dose: 200.0 mg/kg/injection, schedule: Q01DX009 (ip), vehicle: saline with Tween-80): 101 % of control
T/C (dose: 400.0 mg/kg/injection, schedule: Q01DX009 (ip), vehicle: saline with Tween-80): 107 % of control

OCCOc1ccccc1
T/C (dose: 100.0 mg/kg/injection, schedule: Q04DX002 (ip), vehicle: saline with Tween-80): 100 % of control
T/C (dose: 200.0 mg/kg/injection, schedule: Q04DX002 (ip), vehicle: saline with Tween-80): 95 % of control
T/C (dose: 400.0 mg/kg/injection, schedule: Q04DX002 (ip), vehicle: saline with Tween-80): 91 % of control

CC(NC(=O)CNC(=O)OCc1ccccc1)C(N)=O (stereo not drawn) (Cbz-Gly-[ξA]-NH2)
T/C (dose: 100.0 mg/kg/injection, schedule: Q04DX003 (ip), vehicle: saline with Tween-80): 102 % of control
T/C (dose: 200.0 mg/kg/injection, schedule: Q04DX003 (ip), vehicle: saline with Tween-80): 101 % of control
T/C (dose: 400.0 mg/kg/injection, schedule: Q04DX003 (ip), vehicle: saline with Tween-80): 101 % of control

Cc1ccc(S(C)(=N)=O)cc1 (configuration not stated)
T/C (dose: 100.0 mg/kg/injection, schedule: Q01DX009 (ip), vehicle: saline): 102 % of control
T/C (dose: 100.0 mg/kg/injection, schedule: Q04DX003 (ip), vehicle: saline): 95 % of control
T/C (dose: 200.0 mg/kg/injection, schedule: Q01DX009 (ip), vehicle: saline): 100 % of control
T/C (dose: 200.0 mg/kg/injection, schedule: Q04DX003 (ip), vehicle: saline): 98 % of control
T/C (dose: 400.0 mg/kg/injection, schedule: Q01DX009 (ip), vehicle: saline): 105 % of control
T/C (dose: 400.0 mg/kg/injection, schedule: Q04DX003 (ip), vehicle: saline): 98 % of control

CCOC(=O)NNC(=O)c1ccccc1N(C)C
T/C [1]: 94 % of control
T/C [2]: 101 % of control
T/C [3]: 91 % of control
T/C [4]: 101 % of control
T/C [5]: 97 % of control
T/C [6]: 95 % of control

CCC[CH2][Pb]([Cl])([Cl])[CH2]CCC
T/C (dose: 5.0 mg/kg/injection, schedule: Q01DX001 (ip), vehicle: carboxymethylcellulose (CMC)): 95 % of control
T/C (dose: 20.0 mg/kg/injection, schedule: Q01DX001 (ip), vehicle: carboxymethylcellulose (CMC)): 108 % of control
T/C (dose: 40.0 mg/kg/injection, schedule: Q01DX001 (ip), vehicle: carboxymethylcellulose (CMC)): 97 % of control
T/C [7]: 103 % of control

O=C(OCc1ccccc1CN1CCCC1)c1ccc([N+](=O)[O-])cc1Cl
T/C [8]: 107 % of control
T/C [9]: 96 % of control

Nc1nc2ncc(CCCNc3ccc(C(=O)NC(CCC(=O)O)C(=O)O)cc3)nc2c(=O)[nH]1 (configuration not stated)
T/C (dose: 50.0 mg/kg/injection, schedule: Q01DX001 (ip), vehicle: carboxymethylcellulose (CMC)): 94 % of control
T/C [7]: 108 % of control
T/C [10]: 94 % of control

CCOC(=O)c1ccc(N=NN(C)C(C)CC)cc1 (configuration not stated)
T/C (dose: 100.0 mg/kg/injection, schedule: Q01DX001 (ip), vehicle: Klucel (hydroxypropylcellulose) (HPC)): 113 % of control
T/C [2]: 102 % of control
T/C (dose: 200.0 mg/kg/injection, schedule: Q01DX001 (ip), vehicle: Klucel (hydroxypropylcellulose) (HPC)): 101 % of control
T/C [4]: 118 % of control
T/C (dose: 400.0 mg/kg/injection, schedule: Q01DX001 (ip), vehicle: Klucel (hydroxypropylcellulose) (HPC)): 124 % of control
T/C [5]: 166 % of control
T/C [6]: 122 % of control

CCOC(=O)/C(C#N)=C1/C=C(N)CCC1
T/C [7]: 98 % of control
T/C [10]: 94 % of control
T/C (dose: 400.0 mg/kg/injection, schedule: Q01DX001 (ip), vehicle: carboxymethylcellulose (CMC)): 100 % of control

Cc1cc(Cl)ccc1NC(=O)c1ccccc1C(=O)O
T/C [1]: 96 % of control
T/C [2]: 98 % of control
T/C [3]: 93 % of control
T/C [4]: 91 % of control
T/C [5]: 102 % of control
T/C [6]: 93 % of control

CC(C)[CH2][Sn](=[O])[CH2]C(C)C
T/C (dose: 6.25 mg/kg/injection, schedule: Q04DX002 (ip), vehicle: saline with Tween-80): 108 % of control
T/C (dose: 12.5 mg/kg/injection, schedule: Q04DX002 (ip), vehicle: saline with Tween-80): 96 % of control

CCOP(=O)(OCC)C(=O)C1C(C=C(C)C)C1(C)C (configuration not stated)
T/C [8]: 123 % of control
T/C [9]: 104 % of control
T/C (dose: 400.0 mg/kg/injection, schedule: Q04DX002 (ip), vehicle: saline): 115 % of control

Reference: PubChem BioAssay AID248 (DTP/NCI, 2004)
